We go through nine compounds from US20160122340A1, “HISTONE DEACETYLASE INHIBITORS BASED ON DERIVATIVES OF TRICYCLIC POLYHYDROACRIDINE AND ANALOGS POSSESSING FUSED SATURATED FIVE-AND-SEVEN-MEMBERED RINGS” (QUIMATRYX, S.L., priority 2013, published 2016).

A value given as a limit tells only on which side of the number the result lay.

What all share (assay type): biochemical
One experiment has as its target T1, Human HDAC3/NcoR2 (Homo sapiens, UniProt O15379).
T1 construct: Complex of human HDAC3, full length with C-terminal His tag, MW=49.7 kDa; His (C); purchased BioMol SE-507; host or cells: baculovirus expression system
Kind of experiment: In vitro HDAC3 inhibition, fluorogenic peptide substrate. As to conditions: read-out: IC50 (μM) HDAC-3. Here is the method:
(§1) In Vitro Inhibitory Activity of Histone Deacetylase: Human Isoforms HDAC1, 2, 3, 4, 5, 6, 7, 8, 9, 10 and 11 and HeLa Cell Line Nuclear Extract (IC50 Data)
(§2) All HDAC assays were performed using acetylated AMC-labeled peptide substrate: • Substrate for isoforms HDAC1, 2, 3, 6, 10, 11 and HeLa nuclear extract assays: Acetylated fluorogenic peptide from p53 residues 379-382 (RHKKAc). • Substrate for isoforms HDAC 4, 5, 7, 9: Fluorogenic Boc-L-Lys(ε-trifluoroacetyl)-AMC. • Substrate for HDAC8 assays: Acetylated fluorogenic peptide from p53 residues 379-382 (RHKAcKAc).
(§3) 50 μM of substrate peptide (see ‘substrate peptides’ section above) and an optimal concentration of the corresponding enzyme (see ‘enzymes’ section above) in the assay buffer and 1% final concentration of DMSO were incubated in the presence of gradient concentrations of inhibitors (10-dose IC50 mode with 3-fold serial dilution) at 30° C. for 2 h. The reactions were carried out in a 96-well microplate for fluorometry in a 50 μl reaction volume. After the deacetylation reaction, Fluor-de-Lys-Developer (BioMol Cat. # KI-105) was added to each well to digest the deacetylated substrate, thus producing the fluorescent signal. The reaction was allowed to develop for 45 minutes at 30° C. with 5% CO2; then the fluorescent signal was measured with an excitation wavelength at 360 nm and an emission wavelength at 460 nm in a microplate-reading fluorometer (GeminiXS; Molecular Devices, Sunnyvale, Calif.). A curve of Deacetylated Standard (Biomol, Cat. # KI-142; made from 100 μM with 1:2 dilution and 10-doses, 6 μl) allowed the conversion of fluorescent signal into micromoles of deacetylated product. All experiments were performed in triplicate. IC50 was calculated by fitting the experimental data to a dose-response curve. DMSO was used as negative control; Trichostatin A (Biomol Cat. # GR-309) was used as positive control inhibitor.

In another experiment the target is T2, Human HDAC8 (Homo sapiens, UniProt Q9BY41).
T2 construct: Full length, MW=42 kDa, expressed in an E. coli expression system; purchased BioMol SE-145; host or cells: E. coli
T2 sequence (Q9BY41 1-377): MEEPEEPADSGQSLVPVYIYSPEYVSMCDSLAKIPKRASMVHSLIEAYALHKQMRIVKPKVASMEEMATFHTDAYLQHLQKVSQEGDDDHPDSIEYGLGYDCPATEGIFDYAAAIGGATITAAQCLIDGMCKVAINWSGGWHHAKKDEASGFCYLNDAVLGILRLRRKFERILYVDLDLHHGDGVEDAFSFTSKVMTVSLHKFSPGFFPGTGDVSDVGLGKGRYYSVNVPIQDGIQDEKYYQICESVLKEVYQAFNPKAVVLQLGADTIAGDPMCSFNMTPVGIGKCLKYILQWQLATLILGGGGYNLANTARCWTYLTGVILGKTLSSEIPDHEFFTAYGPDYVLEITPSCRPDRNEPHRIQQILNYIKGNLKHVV
Kind of experiment: In vitro HDAC8 inhibition, fluorogenic peptide substrate. Particulars: read-out: IC50 (μM) HDAC-8. Here is the method: as §1, §2, §3

The target in a further experiment is T3, Human HDAC1 (Homo sapiens, UniProt Q13547).
T3 construct: Full length with C-terminal GST tag, MW=79.9 kDa; GST (C); purchased BioMol SE-456; host or cells: baculovirus / Sf9 cells
T3 sequence (Q13547 whole entry): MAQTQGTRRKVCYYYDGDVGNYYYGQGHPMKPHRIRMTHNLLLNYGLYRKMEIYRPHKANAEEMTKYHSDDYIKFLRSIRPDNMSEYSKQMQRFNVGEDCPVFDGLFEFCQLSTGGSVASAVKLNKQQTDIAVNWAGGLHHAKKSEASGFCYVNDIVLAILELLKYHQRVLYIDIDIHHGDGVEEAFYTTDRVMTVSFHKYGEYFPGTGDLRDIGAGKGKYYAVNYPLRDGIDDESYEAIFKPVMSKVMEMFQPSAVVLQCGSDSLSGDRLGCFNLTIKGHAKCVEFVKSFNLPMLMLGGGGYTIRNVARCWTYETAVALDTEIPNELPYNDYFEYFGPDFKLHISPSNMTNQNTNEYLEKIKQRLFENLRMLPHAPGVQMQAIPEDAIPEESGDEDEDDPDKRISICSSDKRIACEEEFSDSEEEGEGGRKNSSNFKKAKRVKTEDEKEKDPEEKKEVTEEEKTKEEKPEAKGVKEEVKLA
Kind of experiment: In vitro HDAC1 inhibition, fluorogenic peptide substrate. As to conditions: read-out: IC50 (μM) HDAC-1. The procedure:
as §1, §2, §3

For a further experiment, the target named is T4, Human HDAC6 (Homo sapiens, UniProt Q9UBN7).
T4 construct: Full length with N-terminal GST tag, MW=159 kDa; GST (N); purchased BioMol SE-508; host or cells: baculovirus / Sf9 cells
T4 sequence (Q9UBN7 1-1215): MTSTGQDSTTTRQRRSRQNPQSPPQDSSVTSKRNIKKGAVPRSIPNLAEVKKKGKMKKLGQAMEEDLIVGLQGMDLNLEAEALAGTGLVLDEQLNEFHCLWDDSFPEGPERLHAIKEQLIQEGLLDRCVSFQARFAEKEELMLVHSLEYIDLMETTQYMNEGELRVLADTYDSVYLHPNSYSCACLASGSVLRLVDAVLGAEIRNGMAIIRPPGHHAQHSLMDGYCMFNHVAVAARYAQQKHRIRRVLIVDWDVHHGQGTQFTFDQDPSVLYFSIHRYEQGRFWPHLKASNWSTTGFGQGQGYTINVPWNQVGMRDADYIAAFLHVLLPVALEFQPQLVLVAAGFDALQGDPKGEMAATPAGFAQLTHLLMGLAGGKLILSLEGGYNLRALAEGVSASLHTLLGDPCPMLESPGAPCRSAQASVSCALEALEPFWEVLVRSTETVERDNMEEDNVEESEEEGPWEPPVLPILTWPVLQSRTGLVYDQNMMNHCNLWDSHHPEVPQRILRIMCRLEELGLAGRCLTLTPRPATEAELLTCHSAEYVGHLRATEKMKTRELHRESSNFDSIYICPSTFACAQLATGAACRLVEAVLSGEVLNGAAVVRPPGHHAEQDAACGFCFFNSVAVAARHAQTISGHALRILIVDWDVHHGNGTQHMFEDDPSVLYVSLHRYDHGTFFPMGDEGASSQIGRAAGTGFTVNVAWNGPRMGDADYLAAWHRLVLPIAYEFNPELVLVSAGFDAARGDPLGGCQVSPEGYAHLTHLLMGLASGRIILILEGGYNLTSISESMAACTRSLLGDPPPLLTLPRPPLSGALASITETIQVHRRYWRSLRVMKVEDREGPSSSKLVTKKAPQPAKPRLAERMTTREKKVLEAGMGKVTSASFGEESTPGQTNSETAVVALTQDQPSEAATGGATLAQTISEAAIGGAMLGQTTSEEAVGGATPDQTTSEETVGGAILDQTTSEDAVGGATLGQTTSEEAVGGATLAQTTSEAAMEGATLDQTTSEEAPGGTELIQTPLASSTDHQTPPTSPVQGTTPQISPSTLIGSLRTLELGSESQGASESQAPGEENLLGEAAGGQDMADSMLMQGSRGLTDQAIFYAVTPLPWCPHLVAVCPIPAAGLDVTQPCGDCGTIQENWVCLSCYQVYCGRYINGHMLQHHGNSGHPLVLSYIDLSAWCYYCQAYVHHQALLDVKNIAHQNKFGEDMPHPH
Kind of experiment: In vitro HDAC6 inhibition, fluorogenic peptide substrate. Particulars: read-out: IC50 (μM) HDAC-6. The procedure: as §1, §2, §3

For the next experiment, the target named is T5, Human HDAC4 (Homo sapiens, UniProt P56524).
T5 construct: Amino acids 627-1085 with N-terminal GST tag, MW=75.2 kDa; GST (N); purchased BioMol, Hamburg, Germany; host or cells: baculovirus expression system
T5 sequence (P56524 627-1084 limits assumed): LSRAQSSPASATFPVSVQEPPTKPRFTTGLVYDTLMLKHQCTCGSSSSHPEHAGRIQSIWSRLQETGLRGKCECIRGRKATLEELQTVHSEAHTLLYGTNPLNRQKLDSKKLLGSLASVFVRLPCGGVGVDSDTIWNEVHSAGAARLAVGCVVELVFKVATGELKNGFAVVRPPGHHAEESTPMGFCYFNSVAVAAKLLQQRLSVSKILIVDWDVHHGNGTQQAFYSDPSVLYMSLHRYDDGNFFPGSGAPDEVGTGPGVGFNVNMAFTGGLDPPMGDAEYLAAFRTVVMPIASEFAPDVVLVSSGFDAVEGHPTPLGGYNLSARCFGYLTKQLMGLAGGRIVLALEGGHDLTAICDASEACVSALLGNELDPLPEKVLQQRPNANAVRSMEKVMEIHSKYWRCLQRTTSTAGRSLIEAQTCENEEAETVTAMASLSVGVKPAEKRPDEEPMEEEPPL
Kind of experiment: In vitro HDAC4 inhibition, fluorogenic substrate. As to conditions: read-out: IC50 (μM) HDAC-4. Here is the method:
as §1, §2, §3

T1 sequence (O15379 whole entry): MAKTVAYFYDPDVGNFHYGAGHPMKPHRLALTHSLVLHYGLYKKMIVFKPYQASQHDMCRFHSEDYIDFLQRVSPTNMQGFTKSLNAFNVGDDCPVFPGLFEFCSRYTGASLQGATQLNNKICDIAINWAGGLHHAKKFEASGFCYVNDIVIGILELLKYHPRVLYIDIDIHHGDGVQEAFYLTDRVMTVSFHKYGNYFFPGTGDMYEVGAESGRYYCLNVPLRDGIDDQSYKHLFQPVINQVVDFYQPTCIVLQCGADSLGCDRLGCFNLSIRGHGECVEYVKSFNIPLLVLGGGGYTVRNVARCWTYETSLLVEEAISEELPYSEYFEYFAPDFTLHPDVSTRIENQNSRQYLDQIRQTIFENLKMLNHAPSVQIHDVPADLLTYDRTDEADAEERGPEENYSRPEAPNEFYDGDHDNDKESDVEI
T1 sequence (Q9Y618 395-489 partner limits assumed): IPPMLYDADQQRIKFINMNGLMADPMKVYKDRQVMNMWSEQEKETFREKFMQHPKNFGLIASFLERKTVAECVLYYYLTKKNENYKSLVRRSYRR

Take `O=C(CCCCCCNc1c2c(nc3ccccc13)CCCC2)NO` [Example 2, N-hydroxy-7-[(1,2,3,4-tetrahydroacridin-9-yl)amino]heptanamide]: the half-inhibitory concentration (IC50) at Human HDAC3/NcoR2 was 0.42 µM; at Human HDAC8, 0.53 µM; at Human HDAC1, 0.36 µM; at Human HDAC6, 0.01 µM; on Human HDAC4 it was above 5 µM.
Take `O=C(CCCCCCNC(=O)c1c2c(nc3ccccc13)CCCC2)NO` [Example 11, N-[7-(hydroxyamino)-7-oxoheptyl]-1,2,3,4-tetrahydroacridine-9-carboxamide]: the IC50 was 3.62 µM at Human HDAC3/NcoR2; 0.21 µM at Human HDAC8; 2.95 µM on Human HDAC1; 0.19 µM at Human HDAC6; above 5 µM at Human HDAC4.
For the compound `O=C(CCCCCNC(=O)c1c2c(nc3ccccc13)CCCC2)NO` [Example 10, N-[6-(hydroxyamino)-6-oxohexyl]-1,2,3,4-tetrahydroacridine-9-carboxamide], the half-maximal inhibitory concentration (IC50) was above 5 µM at Human HDAC3/NcoR2, above 5 µM at Human HDAC1, 0.33 µM at Human HDAC6 and above 5 µM on Human HDAC4.
For the compound `O=C(CCCCCCNc1c2c(nc3ncccc13)CCCC2)NO` [Example 7, N-hydroxy-7-[(6,7,8,9-tetrahydrobenzo[b][1,8]naphthyridin-5-yl)amino]heptanamide], the IC50 on Human HDAC3/NcoR2 was 2.44 µM; on Human HDAC8, 1.44 µM; at Human HDAC1 it was 1.77 µM; at Human HDAC6, 0.038 µM; on Human HDAC4, above 5 µM.
In the same order, the values of `COc1cccc2c(NCCCCCCC(=O)NO)c3c(nc12)CCCC3` [Example 5, N-hydroxy-7-[(5-methoxy-1,2,3,4-tetrahydroacridin-9-yl)amino]heptanamide] are 0.66 µM, 1.52 µM, 0.9 µM, 0.015 µM and above 5 µM.
The corresponding values for `O=C(CCCCCCNc1c2c(nc3ccccc13)CCCCC2)NO` [Example 4, N-hydroxy-7-[(7,8,9,10-tetrahydro-6H-cyclohepta[b]quinolin-11-yl)amino]heptanamide] are 0.74 µM, 0.84 µM, 0.84 µM, 0.015 µM and above 5 µM.
In the same order, the values of `O=C(CCCCCNc1c2c(nc3ccccc13)CCCC2)NO` [Example 1, N-hydroxy-6-[(1,2,3,4-tetrahydroacridin-9-yl)amino]hexanamide] are 2.84 µM, 0.59 µM, 2.99 µM, 0.036 µM and 6.19 µM.
Regarding `O=C(CCCCCCNc1c2c(nc3ccccc13)CCC2)NO` [Example 3, 7-[(2,3-dihydro-1H-cyclopenta[b]quinolin-9-yl)amino]-N-hydroxyheptanamide], the half-inhibitory concentration (IC50) is 0.36 µM on Human HDAC3/NcoR2, 1.28 µM on Human HDAC8, 0.27 µM on Human HDAC1 and above 5 µM at Human HDAC4.
As for `O=C(CCCCCCNc1c2c(nc3cnccc13)CCCC2)NO` [Example 8, N-hydroxy-7-[(6,7,8,9-tetrahydrobenzo[b][1,7]naphthyridin-5-yl)amino]heptanamide], the IC50 was 1.88 µM at Human HDAC3/NcoR2; 1.09 µM on Human HDAC8; 1.12 µM at Human HDAC1; 0.033 µM at Human HDAC6; above 5 µM at Human HDAC4.
